Measurements taken from PMC6409085, “Three odorant-binding proteins are involved in the behavioral response of Sogatella furcifera to rice plant volatiles” (PeerJ, 2019).
Several values for one entry are separate records, joined by “and”; a condition that tells them apart may be missing. Equal values may be shown once.

Experiments:
[1] = target: SfurOBP2 (Sogatella furcifera, UniProt V5T759); experiment: biochemical; type: binding
Outline: (§1)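 In 50 mM Tris-HCl pH 7.4, odorants displace 1-NPN (2.0 µM) from 2.0 µM protein. Emission at 390–490 nm under 337 nm excitation is measured 2 min after competitor addition, in triplicate. Ki is obtained from IC50 and the 1-NPN dissociation constant.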

[2] = target: SfurOBP11 (Sogatella furcifera, UniProt V5T6E3); experiment: biochemical; type: binding
Outline: as §1

[3] = target: SfurOBP3 (Sogatella furcifera, UniProt V5T818); experiment: biochemical; type: binding; details: for Fluorescence competitive binding assay, fluorescence intensity: OBP3, three replicate columns
Outline: as §1

[4] = target: SfurOBP1 (Sogatella furcifera, UniProt V5T8N5); experiment: biochemical; type: binding; details: for Fluorescence competitive binding assay, fluorescence intensity: OBP1, three replicate columns
Outline: as §1

[5] = tested on: S. furcifera adults; experiment: Y-tube olfactometer behavioral trials; type: in vivo, Sogatella furcifera; details: odorant 50 µL/L vs hexane
Experimental: To test the effect of the rice odorants on the behavior of S. furcifera adults, a glass Y-tube olfactometer (inner diameter 2.0 cm, stem 13 cm, arms 10 cm, angle of arms 60°) according to the previously described ([Wang et al., 2014b]) was employed. An airtight cubic box (70 by 45 by 30 cm) was used to position Y-tube, and the Y-tube was lighted by a 30-W filament lamp 25 cm above it. Air that filtered through activated charcoal and humidified with doubly distilled water was pumped in both arms at a flow rate of 300 mL/min. Two filter paper strips (10 by 1 cm) containing 100 µL odorant source (50 µL/L) and 100 µL control hexane were placed in two holding chambers in the front of the olfactometer, respectively. A S. furcifera adult (2 days after emergence, starved for 0.5 h) was randomly chosen and placed in the stem of the Y-tube. Each insect was given 10 min to choose between the two arms of the Y-tube, the choice was noted if the planthopper reached one-half of the arms’ lengths and stayed in the arm for more than 1 min. Besides, S. furcifera was considered as having no orientation preference. Forty-five individuals were used for each compound, each insect used only once. And the dual-choice experiment was done in an environmentally controlled room (25 ± 1 °C and 50% RH). A Chi-squared test was used to analyze the behavioral assay data by using SPSS19.0 (SPSS Inc., Chicago, IL, USA) software.

SfurOBP3, sequence (V5T818 entry or part of it): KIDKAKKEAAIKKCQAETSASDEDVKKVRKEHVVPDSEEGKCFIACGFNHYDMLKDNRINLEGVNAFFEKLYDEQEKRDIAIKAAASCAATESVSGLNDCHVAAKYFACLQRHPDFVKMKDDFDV
SfurOBP1, sequence (V5T8N5 entry or part of it): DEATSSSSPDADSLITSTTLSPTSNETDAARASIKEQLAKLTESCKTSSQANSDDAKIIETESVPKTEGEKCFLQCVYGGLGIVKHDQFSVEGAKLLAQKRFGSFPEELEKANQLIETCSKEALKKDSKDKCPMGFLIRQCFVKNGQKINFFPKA
SfurOBP11, sequence (V5T6E3 entry or part of it): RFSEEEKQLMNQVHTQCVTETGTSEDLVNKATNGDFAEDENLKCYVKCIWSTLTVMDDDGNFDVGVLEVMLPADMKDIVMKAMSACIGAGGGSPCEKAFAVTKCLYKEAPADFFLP
SfurOBP2, sequence (V5T759 entry or part of it): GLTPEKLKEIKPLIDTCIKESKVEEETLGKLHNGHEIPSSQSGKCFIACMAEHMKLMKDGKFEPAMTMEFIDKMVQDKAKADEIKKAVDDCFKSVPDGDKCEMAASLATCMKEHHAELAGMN

IC50 ([1]; SfurOBP2, protein and 1-NPN both 2.0 µM, competitor 2-20 µM, read-out: IC50): > 20 µM
Fluorescence competitive binding assay, OBP2 (raw fluorescence reading) ([1]; ligand concentration 2 (unit not given), replicate column 1 of 3): 15175
Fluorescence competitive binding assay, OBP2 (raw fluorescence reading) ([1]; ligand concentration 2 (unit not given), replicate column 2 of 3): 15154
Fluorescence competitive binding assay, OBP2 (raw fluorescence reading) ([1]; ligand concentration 2 (unit not given), replicate column 3 of 3): 16258
Fluorescence competitive binding assay, OBP2 (raw fluorescence reading) ([1]; ligand concentration 4 (unit not given), replicate column 1 of 3): 15758
Fluorescence competitive binding assay, OBP2 (raw fluorescence reading) ([1]; ligand concentration 4 (unit not given), replicate column 2 of 3): 17105
Fluorescence competitive binding assay, OBP2 (raw fluorescence reading) ([1]; ligand concentration 4 (unit not given), replicate column 3 of 3): 16490
Fluorescence competitive binding assay, OBP2 (raw fluorescence reading) ([1]; ligand concentration 6 (unit not given), replicate column 1 of 3): 15945
Fluorescence competitive binding assay, OBP2 (raw fluorescence reading) ([1]; ligand concentration 6 (unit not given), replicate column 2 of 3): 16570
Fluorescence competitive binding assay, OBP2 (raw fluorescence reading) ([1]; ligand concentration 6 (unit not given), replicate column 3 of 3): 19054
Fluorescence competitive binding assay, OBP2 (raw fluorescence reading) ([1]; ligand concentration 8 (unit not given), replicate column 1 of 3): 15963
Fluorescence competitive binding assay, OBP2 (raw fluorescence reading) ([1]; ligand concentration 8 (unit not given), replicate column 2 of 3): 18724
Fluorescence competitive binding assay, OBP2 (raw fluorescence reading) ([1]; ligand concentration 8 (unit not given), replicate column 3 of 3): 18059
Fluorescence competitive binding assay, OBP2 (raw fluorescence reading) ([1]; ligand concentration 10 (unit not given), replicate column 1 of 3): 16134
Fluorescence competitive binding assay, OBP2 (raw fluorescence reading) ([1]; ligand concentration 10 (unit not given), replicate column 2 of 3): 18215
Fluorescence competitive binding assay, OBP2 (raw fluorescence reading) ([1]; ligand concentration 10 (unit not given), replicate column 3 of 3): 19226
Fluorescence competitive binding assay, OBP2 (raw fluorescence reading) ([1]; ligand concentration 12 (unit not given), replicate column 1 of 3): 15563
Fluorescence competitive binding assay, OBP2 (raw fluorescence reading) ([1]; ligand concentration 12 (unit not given), replicate column 2 of 3): 19243
Fluorescence competitive binding assay, OBP2 (raw fluorescence reading) ([1]; ligand concentration 12 (unit not given), replicate column 3 of 3): 19003
Fluorescence competitive binding assay, OBP2 (raw fluorescence reading) ([1]; ligand concentration 14 (unit not given), replicate column 1 of 3): 19071
Fluorescence competitive binding assay, OBP2 (raw fluorescence reading) ([1]; ligand concentration 14 (unit not given), replicate column 2 of 3): 18512
Fluorescence competitive binding assay, OBP2 (raw fluorescence reading) ([1]; ligand concentration 14 (unit not given), replicate column 3 of 3): 18689
Fluorescence competitive binding assay, OBP2 (raw fluorescence reading) ([1]; ligand concentration 16 (unit not given), replicate column 1 of 3): 17244
Fluorescence competitive binding assay, OBP2 (raw fluorescence reading) ([1]; ligand concentration 16 (unit not given), replicate column 2 of 3): 19263
Fluorescence competitive binding assay, OBP2 (raw fluorescence reading) ([1]; ligand concentration 16 (unit not given), replicate column 3 of 3): 18663
Fluorescence competitive binding assay, OBP2 (raw fluorescence reading) ([1]; ligand concentration 18 (unit not given), replicate column 1 of 3): 23408
Fluorescence competitive binding assay, OBP2 (raw fluorescence reading) ([1]; ligand concentration 18 (unit not given), replicate column 2 of 3): 23725
Fluorescence competitive binding assay, OBP2 (raw fluorescence reading) ([1]; ligand concentration 18 (unit not given), replicate column 3 of 3): 20804
Fluorescence competitive binding assay, OBP2 (raw fluorescence reading) ([1]; ligand concentration 20 (unit not given), replicate column 1 of 3): 16894
Fluorescence competitive binding assay, OBP2 (raw fluorescence reading) ([1]; ligand concentration 20 (unit not given), replicate column 2 of 3): 20680
Fluorescence competitive binding assay, OBP2 (raw fluorescence reading) ([1]; ligand concentration 20 (unit not given), replicate column 3 of 3): 19308
IC50 ([2]; SfurOBP11, protein and 1-NPN both 2.0 µM, competitor 2-20 µM, read-out: IC50): > 20 µM
Fluorescence intensity, fluorescence competitive binding assay, OBP11 ([2]; ligand concentration 4, replicate 1): 32002
Fluorescence intensity, fluorescence competitive binding assay, OBP11 ([2]; ligand concentration 6, replicate 1): 31916
Fluorescence intensity, fluorescence competitive binding assay, OBP11 ([2]; ligand concentration 8, replicate 1): 31638
Fluorescence intensity, fluorescence competitive binding assay, OBP11 ([2]; ligand concentration 8, replicate 2): 32522
Fluorescence intensity, fluorescence competitive binding assay, OBP11 ([2]; ligand concentration 8, replicate 3): 31984
Fluorescence intensity, fluorescence competitive binding assay, OBP11 ([2]; ligand concentration 10, replicate 1): 34517
Fluorescence intensity, fluorescence competitive binding assay, OBP11 ([2]; ligand concentration 10, replicate 2): 33120
Fluorescence intensity, fluorescence competitive binding assay, OBP11 ([2]; ligand concentration 10, replicate 3): 33819
Fluorescence intensity, fluorescence competitive binding assay, OBP11 ([2]; ligand concentration 12, replicate 3): 31678
Fluorescence intensity, fluorescence competitive binding assay, OBP11 ([2]; ligand concentration 14, replicate 1): 31889
Fluorescence intensity, fluorescence competitive binding assay, OBP11 ([2]; ligand concentration 14, replicate 2): 31807
Fluorescence intensity, fluorescence competitive binding assay, OBP11 ([2]; ligand concentration 14, replicate 3): 32302
Fluorescence intensity, fluorescence competitive binding assay, OBP11 ([2]; ligand concentration 18, replicate 1): 36648
Fluorescence intensity, fluorescence competitive binding assay, OBP11 ([2]; ligand concentration 18, replicate 2): 40474
Fluorescence intensity, fluorescence competitive binding assay, OBP11 ([2]; ligand concentration 18, replicate 3): 36079
Fluorescence intensity, fluorescence competitive binding assay, OBP11 ([2]; ligand concentration 20, replicate 1): 36041
Fluorescence intensity, fluorescence competitive binding assay, OBP11 ([2]; ligand concentration 20, replicate 2): 35048
Fluorescence intensity, fluorescence competitive binding assay, OBP11 ([2]; ligand concentration 20, replicate 3): 35313
Fluorescence competitive binding assay, fluorescence intensity ([3]; ligand concentration 2): 35042 and 35938 and 36236
Fluorescence competitive binding assay, fluorescence intensity ([3]; ligand concentration 4): 33936 and 35041 and 36163
Fluorescence competitive binding assay, fluorescence intensity ([3]; ligand concentration 6): 30371 and 31101 and 32222
Fluorescence competitive binding assay, fluorescence intensity ([3]; ligand concentration 8): 32781 and 31040 and 32847
Fluorescence competitive binding assay, fluorescence intensity ([3]; ligand concentration 10): 31032 and 32369 and 33307
Fluorescence competitive binding assay, fluorescence intensity ([3]; ligand concentration 12): 29013 and 34433 and 32292
Fluorescence competitive binding assay, fluorescence intensity ([3]; ligand concentration 14): 31092 and 30872 and 34922
Fluorescence competitive binding assay, fluorescence intensity ([3]; ligand concentration 16): 33838 and 32037 and 30214
Fluorescence competitive binding assay, fluorescence intensity ([3]; ligand concentration 18): 37931 and 38340 and 38776
Fluorescence competitive binding assay, fluorescence intensity ([3]; ligand concentration 20): 37363 and 39141 and 38102
binding affinity to SfurOBP3 (in words) ([3]; SfurOBP3): high binding affinities
IC50 ([3]; SfurOBP3, protein and 1-NPN both 2.0 µM, competitor 2-20 µM, read-out: IC50): > 20 µM
Fluorescence competitive binding assay, fluorescence intensity ([4]; ligand concentration 2 (μM)): 5991 and 6647 and 6019
Fluorescence competitive binding assay, fluorescence intensity ([4]; ligand concentration 4 (μM)): 9444 and 9717 and 9590
Fluorescence competitive binding assay, fluorescence intensity ([4]; ligand concentration 6 (μM)): 8928 and 9981 and 10192
Fluorescence competitive binding assay, fluorescence intensity ([4]; ligand concentration 8 (μM)): 7764 and 12061 and 8808
Fluorescence competitive binding assay, fluorescence intensity ([4]; ligand concentration 10 (μM)): 10672 and 12757 and 12848
Fluorescence competitive binding assay, fluorescence intensity ([4]; ligand concentration 12 (μM)): 11226 and 16440 and 11668
Fluorescence competitive binding assay, fluorescence intensity ([4]; ligand concentration 14 (μM)): 11457 and 12509 and 12654
Fluorescence competitive binding assay, fluorescence intensity ([4]; ligand concentration 16 (μM)): 9720 and 12853 and 11395
Fluorescence competitive binding assay, fluorescence intensity ([4]; ligand concentration 18 (μM)): 14020 and 17603 and 13863
Fluorescence competitive binding assay, fluorescence intensity ([4]; ligand concentration 20 (μM)): 16799 and 14644 and 13556
IC50 ([4]; SfurOBP1, protein and 1-NPN both 2.0 µM, competitor 2-20 µM, read-out: IC50): > 20 µM
SMILES: C=C/C(C)=C/C/C=C(\C)CCC=C(C)C [α-farnesene]
behavioral response of S. furcifera (in words) [5]: strongly attracted
number of insects choosing hexane arm ([5]; adults): 10
number of insects choosing volatilies arm ([5]; adults): 25
number of insects failed (no choice) ([5]; adults): 5
